Assays:
TrkA = target: T1, TrkA (Homo sapiens, UniProt P04629); experiment: Enzyme Fragment Complementation cell-based assay, TrkA; settings: U2OS-cells over-expressing TrkA; ligand 10 ng/mL; 3 hours incubation
T1 construct: expressed in transfected cells; host or cells: U2OS
Outline: (§1)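 U2OS cells overexpressing TrkA, TrkB, TrkC or FGFR1, with receptor and SHC1 fused to complementary beta-galactosidase fragments. Compound pre-mixed with cognate ligand (NGF, BDNF, NT-3 or bFGF; 10 ng/mL final), 3 h at room temperature. Beta-galactosidase substrate with detergent added for 60 min; luminescence read.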

TrkB = target: T2, TrkB (Homo sapiens, UniProt Q16620); experiment: Enzyme Fragment Complementation cell-based assay, TrkB; settings: U2OS-cells over-expressing TrkB; ligand 10 ng/mL; 3 hours incubation
T2 construct: expressed in transfected cells; host or cells: U2OS
Outline: as §1

TrkC = target: T3, TrkC (Homo sapiens, UniProt Q16288); experiment: Enzyme Fragment Complementation cell-based assay, TrkC; settings: U2OS-cells over-expressing TrkC; ligand 10 ng/mL; 3 hours incubation
T3 construct: expressed in transfected cells; host or cells: U2OS
Excerpt: (§2) A high throughput cell-based screen has been used to identify positive modulators of TrkA, TrkB and TrkC. The screen involves the use of cell-based assay overexpressing TrkA, TrkB or TrkC. The purpose of the assay is to identify compounds that modulate neurotrophin signalling (Forsell et al 2012). The assay can be used in inhibitor mode using a high concentration of ligand, in modulator mode using an intermediate concentration and in agonist mode using a low concentration of ligand.
(§3) The assay uses Enzyme Fragment Complementation (EFC) technique, which is a proximity-based assay. Briefly, cells used in this assay over-express two fusion proteins, i.e. the receptor, which can be either one of TrkA, TrkB, TrkC, IGF1R or FGFR1, fused to a small peptide of beta-galactosidase and an adaptor protein, i.e. SHC1 (or any other Trk-adaptor protein) fused to the major part of beta-galactosidase. […] The proximity between the small activating peptide on the receptor and the major part of beta-galactosidase on the adaptor protein leads to an active beta-galactosidase enzyme. The activation of the receptor is quantified by measuring the amount of active beta-galactosidase by its conversion of a non-luminescent substrate into a luminescent product.
(§4) U2OS-cells, over-expressing TrkA or TrkB or TrkC, are plated in 96- or 384-well plates and incubated overnight. Alternatively, cryopreserved HEK293-cells expressing IGFR1 or cryopreserved U2OS-cells expressing FGFR1 were plated in 96- or 384-well plates. On the following day, test compound was pre-mixed with ligand (NGF, BDNF, NT-3, IGF-1 or basic fibroblast growth factor (bFGF(FGF-2))) and the ligand-compound mixture is then added to the cells to yield a final ligand concentration of 10 ng/mL. After 3 hours of incubation at room temperature, the incubation is stopped by the addition of a beta-galactosidase substrate mixture containing detergents. The substrate mixture is incubated for 60 minutes at ambient temperature. The luminescence is thereafter read by the use of a plate reader.

FGFR1 = target: T4, FGFR1 (Homo sapiens, UniProt P11362); experiment: Enzyme Fragment Complementation cell-based assay, FGFR1; settings: cryopreserved U2OS-cells expressing FGFR1; ligand 10 ng/mL; 3 hours incubation
T4 construct: expressed in transfected cells; host or cells: U2OS (cryopreserved)
Excerpt: as §2, §3, §4

IGF1R = target: T5, IGF1R (Homo sapiens, UniProt P08069); experiment: Enzyme Fragment Complementation cell-based assay, IGF1R; settings: cryopreserved HEK293-cells expressing IGFR1; ligand 10 ng/mL; 3 hours incubation
T5 construct: expressed in transfected cells; host or cells: HEK293 (cryopreserved)
Excerpt: as §2, §3, §4

[1] = system: mice treated with scopolamine; experiment: Passive avoidance task; format: in vivo; settings: C57/Bl6 mice; s.c. once per day for 4 days prior to PA training; scopolamine 0.3 mg/kg s.c. 30 min prior to training; FIG. 1
Description: Passive avoidance (PA) is an aversive learning task based on classical (Pavlovian) fear conditioning that allows for analysis of both facilitation and impairment of memory function by adjusting the unconditioned stimulus, i.e. the electrical foot shock. Commonly a cognitive-impairing agent is administered to the animals to mimic the neurochemical disturbances present in various cognitive disorders e.g. cholinergic (scopolamine) and glutamatergic (MK-801) deficits.
Prior to testing, the animals are brought to the experimental room where they are allowed to habituate for 60 min. The test is conducted using a modified shuttle box with two communicating compartments of equal size with a small sliding door built into the separating wall and a stainless-steel bar floor. One of the compartments is not illuminated and thus black whereas the other compartment (the light one) is illuminated by an electric bulb, installed on the top of a plexiglass cover. The PA training is conducted in a single session. […] Latency to cross over into the dark compartment (training latency) is recorded. […] The latency to cross over into the dark compartment with all four feet is measured (retention latency) as well as time in bright compartment and a number of other relevant parameters (e.g. number of visits in the dark compartment). […]

[2] = system: ephrin type-B receptor 2 (EphB2); settings: Suzuki et al., FEBS Open Bio 2016; cited from earlier work

T1 sequence (P04629 33-796): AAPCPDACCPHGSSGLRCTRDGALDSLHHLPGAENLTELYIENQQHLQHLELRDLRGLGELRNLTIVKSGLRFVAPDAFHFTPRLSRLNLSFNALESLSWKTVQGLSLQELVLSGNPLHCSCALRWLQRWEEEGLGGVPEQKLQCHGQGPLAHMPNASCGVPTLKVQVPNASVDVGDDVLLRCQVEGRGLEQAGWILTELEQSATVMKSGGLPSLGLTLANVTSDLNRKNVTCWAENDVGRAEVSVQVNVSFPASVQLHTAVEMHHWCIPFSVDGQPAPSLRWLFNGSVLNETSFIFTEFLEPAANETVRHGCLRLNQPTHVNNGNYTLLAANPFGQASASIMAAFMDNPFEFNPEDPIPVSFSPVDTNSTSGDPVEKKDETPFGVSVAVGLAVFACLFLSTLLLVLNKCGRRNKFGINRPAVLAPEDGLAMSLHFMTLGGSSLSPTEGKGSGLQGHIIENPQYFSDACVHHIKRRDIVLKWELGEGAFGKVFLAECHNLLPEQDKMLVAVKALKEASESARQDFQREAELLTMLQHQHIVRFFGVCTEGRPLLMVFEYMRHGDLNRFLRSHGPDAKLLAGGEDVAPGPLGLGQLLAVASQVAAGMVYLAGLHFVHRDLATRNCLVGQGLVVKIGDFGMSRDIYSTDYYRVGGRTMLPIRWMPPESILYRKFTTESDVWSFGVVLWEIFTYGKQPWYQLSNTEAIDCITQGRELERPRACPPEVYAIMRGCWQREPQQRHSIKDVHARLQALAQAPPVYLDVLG
T4 sequence (P11362 22-822): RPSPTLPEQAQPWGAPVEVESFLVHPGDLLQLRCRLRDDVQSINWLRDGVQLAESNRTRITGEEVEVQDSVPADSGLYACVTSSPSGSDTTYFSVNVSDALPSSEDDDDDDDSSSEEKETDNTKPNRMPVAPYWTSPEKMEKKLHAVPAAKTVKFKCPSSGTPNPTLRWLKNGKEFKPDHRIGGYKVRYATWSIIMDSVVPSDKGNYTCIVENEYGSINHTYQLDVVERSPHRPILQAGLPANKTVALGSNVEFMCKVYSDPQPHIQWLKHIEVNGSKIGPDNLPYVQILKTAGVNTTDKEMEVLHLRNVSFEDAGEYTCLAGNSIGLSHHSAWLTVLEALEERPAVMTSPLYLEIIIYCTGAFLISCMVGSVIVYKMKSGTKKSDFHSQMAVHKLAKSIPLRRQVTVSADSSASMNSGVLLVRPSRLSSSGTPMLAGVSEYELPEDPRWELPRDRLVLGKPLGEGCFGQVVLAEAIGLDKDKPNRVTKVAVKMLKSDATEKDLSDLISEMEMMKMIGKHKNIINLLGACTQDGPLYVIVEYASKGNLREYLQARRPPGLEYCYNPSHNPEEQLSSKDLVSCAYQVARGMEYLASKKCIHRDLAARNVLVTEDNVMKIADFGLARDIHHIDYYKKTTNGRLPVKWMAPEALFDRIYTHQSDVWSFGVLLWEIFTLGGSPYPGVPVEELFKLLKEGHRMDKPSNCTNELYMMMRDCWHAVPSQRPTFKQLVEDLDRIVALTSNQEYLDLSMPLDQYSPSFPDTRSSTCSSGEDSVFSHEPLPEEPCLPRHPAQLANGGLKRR
T5 sequence (P08069 31-736 limits assumed): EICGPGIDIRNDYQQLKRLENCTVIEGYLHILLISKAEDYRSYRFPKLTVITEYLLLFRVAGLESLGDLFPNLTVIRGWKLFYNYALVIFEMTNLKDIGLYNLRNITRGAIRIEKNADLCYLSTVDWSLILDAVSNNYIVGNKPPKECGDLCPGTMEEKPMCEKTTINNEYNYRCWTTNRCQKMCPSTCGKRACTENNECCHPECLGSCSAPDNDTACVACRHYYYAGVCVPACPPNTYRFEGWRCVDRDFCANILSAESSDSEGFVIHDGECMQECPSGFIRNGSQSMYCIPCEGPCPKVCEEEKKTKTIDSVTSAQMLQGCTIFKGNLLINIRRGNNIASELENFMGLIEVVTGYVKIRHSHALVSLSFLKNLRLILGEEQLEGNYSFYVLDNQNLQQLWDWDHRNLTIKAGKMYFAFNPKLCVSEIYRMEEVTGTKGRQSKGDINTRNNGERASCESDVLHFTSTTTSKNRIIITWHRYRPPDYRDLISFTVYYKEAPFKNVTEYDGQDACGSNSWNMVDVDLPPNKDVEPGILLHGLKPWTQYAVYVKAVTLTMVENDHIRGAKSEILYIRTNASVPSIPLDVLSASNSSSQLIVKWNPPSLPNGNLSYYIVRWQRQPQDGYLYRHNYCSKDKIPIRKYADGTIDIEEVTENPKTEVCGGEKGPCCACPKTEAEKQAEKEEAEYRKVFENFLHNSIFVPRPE
T5 sequence (P08069 741-1367 limits assumed): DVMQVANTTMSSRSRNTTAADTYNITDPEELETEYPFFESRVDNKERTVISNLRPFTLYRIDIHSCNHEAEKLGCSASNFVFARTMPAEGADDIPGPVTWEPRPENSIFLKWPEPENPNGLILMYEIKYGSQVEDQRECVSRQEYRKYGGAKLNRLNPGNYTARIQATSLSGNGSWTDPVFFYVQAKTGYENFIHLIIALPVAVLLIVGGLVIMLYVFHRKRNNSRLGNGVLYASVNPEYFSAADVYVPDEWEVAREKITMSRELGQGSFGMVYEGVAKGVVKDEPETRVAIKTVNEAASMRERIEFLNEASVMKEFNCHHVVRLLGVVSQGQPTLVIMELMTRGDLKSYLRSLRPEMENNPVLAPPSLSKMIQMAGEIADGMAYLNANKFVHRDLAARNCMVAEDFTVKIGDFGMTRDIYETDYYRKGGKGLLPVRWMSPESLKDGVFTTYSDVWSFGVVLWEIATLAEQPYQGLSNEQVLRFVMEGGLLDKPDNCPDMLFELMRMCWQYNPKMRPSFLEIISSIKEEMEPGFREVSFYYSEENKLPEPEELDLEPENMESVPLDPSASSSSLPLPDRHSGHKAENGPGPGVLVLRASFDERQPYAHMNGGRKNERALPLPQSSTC
T2 sequence (Q16620 32-822): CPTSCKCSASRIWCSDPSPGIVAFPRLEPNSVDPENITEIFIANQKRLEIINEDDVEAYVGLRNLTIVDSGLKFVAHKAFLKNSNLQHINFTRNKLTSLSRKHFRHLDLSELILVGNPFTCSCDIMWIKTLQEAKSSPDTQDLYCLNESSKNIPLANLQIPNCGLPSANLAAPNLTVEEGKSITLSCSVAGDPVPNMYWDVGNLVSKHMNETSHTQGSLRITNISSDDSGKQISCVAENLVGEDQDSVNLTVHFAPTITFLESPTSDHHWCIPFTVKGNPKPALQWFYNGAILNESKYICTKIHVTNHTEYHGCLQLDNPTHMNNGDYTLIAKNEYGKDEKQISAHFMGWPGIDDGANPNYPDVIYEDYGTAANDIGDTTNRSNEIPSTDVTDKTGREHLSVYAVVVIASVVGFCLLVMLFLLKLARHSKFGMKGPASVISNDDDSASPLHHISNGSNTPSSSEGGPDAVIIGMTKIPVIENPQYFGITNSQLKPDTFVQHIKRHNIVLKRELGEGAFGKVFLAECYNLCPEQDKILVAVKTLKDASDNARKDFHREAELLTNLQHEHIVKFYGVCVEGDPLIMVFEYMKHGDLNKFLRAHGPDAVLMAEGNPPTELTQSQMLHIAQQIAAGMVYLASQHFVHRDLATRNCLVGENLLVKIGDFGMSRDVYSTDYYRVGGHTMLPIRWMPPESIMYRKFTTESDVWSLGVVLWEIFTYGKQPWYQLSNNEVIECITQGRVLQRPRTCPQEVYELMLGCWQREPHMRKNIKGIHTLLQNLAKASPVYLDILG
T3 sequence (Q16288 32-839): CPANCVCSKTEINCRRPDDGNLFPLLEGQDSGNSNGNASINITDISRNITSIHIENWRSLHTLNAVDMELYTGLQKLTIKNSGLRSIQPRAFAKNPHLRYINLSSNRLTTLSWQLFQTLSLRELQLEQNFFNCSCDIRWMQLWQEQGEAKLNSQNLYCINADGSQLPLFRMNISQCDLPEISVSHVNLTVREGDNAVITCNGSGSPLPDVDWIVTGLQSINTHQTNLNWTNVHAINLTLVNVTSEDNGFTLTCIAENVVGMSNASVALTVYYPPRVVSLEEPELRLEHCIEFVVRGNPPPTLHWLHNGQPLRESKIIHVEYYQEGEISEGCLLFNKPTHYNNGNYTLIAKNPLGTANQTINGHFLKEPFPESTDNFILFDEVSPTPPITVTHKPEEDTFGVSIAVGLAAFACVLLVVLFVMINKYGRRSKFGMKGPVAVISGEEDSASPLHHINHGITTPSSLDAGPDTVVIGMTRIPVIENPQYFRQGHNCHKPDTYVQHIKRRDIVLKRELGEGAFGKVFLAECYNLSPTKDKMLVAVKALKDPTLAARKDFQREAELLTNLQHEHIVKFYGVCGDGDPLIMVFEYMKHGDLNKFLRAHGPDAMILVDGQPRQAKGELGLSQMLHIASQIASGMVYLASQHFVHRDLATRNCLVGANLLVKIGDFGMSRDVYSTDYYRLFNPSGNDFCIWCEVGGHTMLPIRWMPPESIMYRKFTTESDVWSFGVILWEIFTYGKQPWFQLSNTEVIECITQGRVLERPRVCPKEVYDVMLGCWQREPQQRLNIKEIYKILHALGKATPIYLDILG

Row | Structure (SMILES) | EC50 (TrkA) [nM] | EC50 (TrkB) [nM] | EC50 (TrkC) [nM] | EC50 (FGFR1) [nM] | EC50 (IGF1R) [nM] | retention latency within the bright area (cognitive function) [1] | inhibition of binding of β-amyloid oligomers to EphB2 [2] [%]
1 | O=c1[nH]c(=O)n(-c2ccc(Oc3ccccc3)cc2)c(=O)n1-c1ccccc1 [Example 1, 1-(4-phenoxyphenyl)-3-phenyl-1,3,5-triazinane-2,4,6-trione] | 1300 | 1400 | 1400 | 890 | 1800 |  | 
2 | COc1cc(Oc2ccccc2)ccc1-n1c(=O)[nH]c(=O)n(-c2ccccc2)c1=O [Example 9, 1-(2-methoxy-4-phenoxyphenyl)-3-phenyl-1,3,5-triazinane-2,4,6-trione] | 230 | 270 |  | 170 | 270 |  | 
3 | Cc1cc(-n2c(=O)[nH]c(=O)n(C)c2=O)ccc1Oc1ccc(SC(F)(F)F)cc1 [toltrazuril, 1-methyl-3-(3-methyl-4-{4-[(trifluoromethyl)sulfanyl]phenoxy}phenyl)-1,3,5-triazinane-2,4,6-trione] |  |  |  |  |  |  | 30

Further lines, with some results ahead:

Row | EC50 (TrkA) [nM] | EC50 (TrkB) [nM] | EC50 (TrkC) [nM] | EC50 (FGFR1) [nM] | EC50 (IGF1R) [nM] | Structure (SMILES) | retention latency within the bright area (cognitive function) [1] | inhibition of binding of β-amyloid oligomers to EphB2 [2] [%]
4 | 340 | 390 |  | 290 | 250 | Cc1cc(-n2c(=O)[nH]c(=O)n(-c3ccccc3)c2=O)ccc1Oc1ccccc1 [Example 5, 1-(3-methyl-4-phenoxyphenyl)-3-phenyl-1,3,5-triazinane-2,4,6-trione] | increased retention latency | 
5 | 320 | 450 |  | 340 | 220 | COc1cc(-n2c(=O)[nH]c(=O)n(-c3ccccc3)c2=O)ccc1Oc1ccccc1 [Example 11, 1-(3-methoxy-4-phenoxyphenyl)-3-phenyl-1,3,5-triazinane-2,4,6-trione] |  | 
